The text below walks through data of patent publication US20230382869A1, “Phenyl-3,4-dihydroisoquinolin-2(1h)-yl-ethan-1-one derivatives as dopamine d1receptor positive allosteric modulators” (Eli Lilly and Company, priority 2020, published 2023).

The target of this experiment is human D1 receptor (Homo sapiens (Human), UniProt P21728). The experiment can be described thus: Human D1 Receptor PAM Assay (cAMP HTRF, potentiator mode). In kind it is cell-based. Particulars: for EC50: HEK293 cells expressing human D1, with EC20 dopamine (12 nM final), cAMP, read-out: Abs EC50; for % Top (% Potentiation): fitted top, 0% = EC20 dopamine alone, 100% = 5 μM dopamine. An excerpt: The PAM activity of the compounds of the present invention may be measured essentially as described in Svensson et al., An Allosteric Potentiator of the Dopamine D1 Receptor Increases Locomotor Activity in Human D1 Knock-in Mices without Casusing Stereotypy or Tachyphylaxis. J. Pharmacol. Exp. Ther. (2017) 360:117-128.
More specifically, HEK293 cells that stably express the human D1 receptor (Accession number NM_000794) are generated by gene transduction using the pBABE-bleo retroviral vector and selected with Zeocin™ (InvivoGen). At approximately 80% confluency, the cells are harvested using TrypLE™ Express (Gibco), suspended in FBS plus 8% DMSO, and stored in liquid nitrogen. On the day of the assay, cells are thawed and resuspended in STIM buffer (Hanks Balanced Salt Solution supplemented with 0.1% BSA, 20 mM HEPES, 500 μM IBMX, and 100 μM ascorbic acid).
Test compound is serially diluted (1:2) with DMSO into assay plates (ProxiPlate-384 Plus, PerkinElmer) using acoustic dispensing (Labcyte) to provide 20 concentrations for full response curves. Test compound (80 nL) is added to 5 μL STIM buffer containing 2000 cells, and 5 μL of a 2×concentration dopamine solution in STIM buffer that will generate an EC20 level response (24 nM in stock solution, or 12 nM final) and a final DMSO concentration in the well of 0.8%. Plates are incubated at room temperature for a total reaction time of 60 min.
cAMP production is quantified using HTRF® detection (Cisbio) according to the manufacturer's instructions. Generally, lysis buffer containing anti-cAMP cryptate (5 μL) and D2-conjugate (from HTRF® kit)(5 μL) is added to the wells, plates are incubated for an additional 60-90 min, and the time-resolved fluorescence is detected using an EnVision™ plate reader (PerkinElmer). Fluorescence data is converted to cAMP concentrations using a cAMP standard curve and analyzing using a 4-parameter non-linear logistic equation (Genedata Screener, version 13.0.5-standard). For potentiator mode concentration-response curves, results are expressed as percent of the window between a response at EC20 concentration of dopamine alone (normalized to 0%) and the maximum response to dopamine (defined by response to 5 μM dopamine, final concentration, normalized as 100%). Absolute EC50 values are calculated based on the maximum and minimum responses of the control agonist (dopamine). The % Potentiation (% Top) is determined from the fitted top of the concentration response curve.

human D1 receptor, sequence (P21728 whole entry): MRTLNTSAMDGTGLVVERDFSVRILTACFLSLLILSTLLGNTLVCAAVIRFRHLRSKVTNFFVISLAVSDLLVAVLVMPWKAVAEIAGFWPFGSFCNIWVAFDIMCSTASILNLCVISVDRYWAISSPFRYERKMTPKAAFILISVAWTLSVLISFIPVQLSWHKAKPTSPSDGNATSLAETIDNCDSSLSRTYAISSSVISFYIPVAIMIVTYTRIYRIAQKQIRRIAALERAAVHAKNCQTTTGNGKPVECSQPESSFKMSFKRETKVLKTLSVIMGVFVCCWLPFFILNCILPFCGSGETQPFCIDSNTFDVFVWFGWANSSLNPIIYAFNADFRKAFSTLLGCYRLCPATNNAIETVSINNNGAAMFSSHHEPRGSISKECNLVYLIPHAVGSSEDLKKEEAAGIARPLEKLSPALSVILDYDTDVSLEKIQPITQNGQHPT

`C[C@H]1c2cccc([C@@H]3C[C@@H]3C(C)(C)O)c2C[C@H](CO)N1C(=O)Cc1c(Cl)cccc1Cl` (relative stereo) [Example 4, 2-(2,6-Dichlorophenyl)-1-[(1S,3R)-3-(hydroxymethyl)-5-[cis-2-(1-hydroxy-1-methyl-ethyl)cyclopropyl]-1-methyl-3,4-dihydro-1H-isoquinolin-2-yl]ethenone]: the EC50 was 86.7 nM and the “% Top (% Potentiation)” value is listed as 93.2%.

On to `C[C@H]1c2cccc([C@@H]3C[C@H]3C(C)(C)O)c2C[C@H](CO)N1C(=O)Cc1c(Cl)cccc1Cl` (relative stereo) [Example 2, 2-(2,6-Dichlorophenyl)-1-[(1S,3R)-3-(hydroxymethyl)-5-[trans-2-(1-hydroxy-1-methyl-ethyl)cyclopropyl]-1-methyl-3,4-dihydro-1H-isoquinolin-2-yl]ethenone], for which the EC50 worked out at 8.28 nM and the “% Top (% Potentiation)” value amounted to 96.4%.

As to `C[C@H]1c2cccc([C@@H]3C[C@@H]3C(C)(C)O)c2C[C@H](CO)N1C(=O)Cc1c(Cl)cccc1Cl` (relative stereo) [Example 3, 2-(2,6-Dichlorophenyl)-1-[(1S,3R)-3-(hydroxymethyl)-5-[cis-2-(1-hydroxy-1-methyl-ethyl)cyclopropyl]-1-methyl-3,4-dihydro-1H-isoquinolin-2-yl]ethenone], the EC50 was 11.2 nM and the “% Top (% Potentiation)” value was 91.9%.

As for `C[C@@H]1c2ccc(F)c([C@@H]3C[C@H]3C(C)(C)O)c2C[C@H](CO)N1C(=O)Cc1c(F)cccc1Cl` (relative stereo) [Example 9, 2-(2-chloro-6-fluoro-phenyl)-1-[(1R,3R)-6-fluoro-3-(hydroxymethyl)-5-[trans-2-(1-hydroxy-1-methyl-ethyl)cyclopropyl]-1-methyl-3,4-dihydro-1H-isoquinolin-2-yl]ethenone], the EC50 came to 13.2 nM and the “% Top (% Potentiation)” value is 82.0%.

Take `C[C@H]1c2cccc([C@@H]3C[C@H]3C(C)(C)O)c2C[C@H](CO)N1C(=O)Cc1c(Cl)cccc1Cl` (relative stereo) [Example 1, 2-(2,6-Dichlorophenyl)-1-[(1S,3R)-3-(hydroxymethyl)-5-[trans-2-(1-hydroxy-1-methyl-ethyl)cyclopropyl]-1-methyl-3,4-dihydro-1H-isoquinolin-2-yl]ethenone]: the concentration giving a half-maximal response (EC50) came to 12.1 nM and the “% Top (% Potentiation)” value is recorded as 94.2%.

`C[C@@H]1c2ccc(F)c([C@@H]3C[C@H]3C(C)(C)O)c2C[C@H](CO)N1C(=O)Cc1c(F)cccc1Cl` (relative stereo) [Example 8, 2-(2-chloro-6-fluoro-phenyl)-1-[(1R,3R)-6-fluoro-3-(hydroxymethyl)-5-[trans-2-(1-hydroxy-1-methyl-ethyl)cyclopropyl]-1-methyl-3,4-dihydro-1H-isoquinolin-2-yl]ethenone]: the concentration for a half-maximal effect (EC50) was found to be 33.6 nM and the “% Top (% Potentiation)” value came out at 78.9%.

For “2-(2,6-Dichlorophenyl)-1-[(1S,3R)-5-[4,4-difluoro-3-hydroxy-3-methyl-butyl]-3-(hydroxymethyl)-1-methyl-3,4-dihydro-1H-isoquinolin-2-yl]ethenone [Example 5]”, the 50% effective concentration (EC50) is 7.96 nM and the “% Top (% Potentiation)” value was 101%.

Take “2-(2,6-Dichlorophenyl)-1-[(1S,3R)-5-[4,4-difluoro-3-hydroxy-3-methyl-butyl]-3-(hydroxymethyl)-1-methyl-3,4-dihydro-1H-isoquinolin-2-yl]ethenone [Example 6]”: the EC50 amounted to 12.7 nM and the “% Top (% Potentiation)” value turned out to be 97.0%.

`C[C@H]1c2ccc(F)c([C@@H]3C[C@H]3C(C)(C)O)c2C[C@H](CO)N1C(=O)Cc1c(Cl)cccc1Cl` (relative stereo) [Example 10, 2-(2,6-dichlorophenyl)-1-[(1S,3R)-6-fluoro-3-(hydroxymethyl)-5-[trans-(1-hydroxy-1-methyl-ethyl)cyclopropyl]-1-methyl-3,4-dihydro-1H-isoquinolin-2-yl]ethenone]: the EC50 was 12.3 nM and the “% Top (% Potentiation)” value is 86.9%.

Regarding `C[C@H]1c2ccc(F)c([C@@H]3C[C@H]3C(C)(C)O)c2C[C@H](CO)N1C(=O)Cc1c(Cl)cccc1Cl` (relative stereo) [Example 11, 2-(2,6-dichlorophenyl)-1-[(1S,3R)-6-fluoro-3-(hydroxymethyl)-5-[trans-(1-hydroxy-1-methyl-ethyl)cyclopropyl]-1-methyl-3,4-dihydro-1H-isoquinolin-2-yl]ethenone], the EC50 turned out to be 5.19 nM and the “% Top (% Potentiation)” value is recorded as 92.7%.
